From ChEMBL document CHEMBL1201862, “PubChem BioAssay data set” (2004)
Activity calls are given as the source filed them.

How the values were obtained:
Insulin-degrading enzyme [1] = target: T1, Insulin-degrading enzyme (Homo sapiens, UniProt P14735); assay: activators of endogenous IDE in HEK cells, dose response, cell-based, fluorescence polarization (AID 588439); type: functional
T1 sequence (P14735 whole entry): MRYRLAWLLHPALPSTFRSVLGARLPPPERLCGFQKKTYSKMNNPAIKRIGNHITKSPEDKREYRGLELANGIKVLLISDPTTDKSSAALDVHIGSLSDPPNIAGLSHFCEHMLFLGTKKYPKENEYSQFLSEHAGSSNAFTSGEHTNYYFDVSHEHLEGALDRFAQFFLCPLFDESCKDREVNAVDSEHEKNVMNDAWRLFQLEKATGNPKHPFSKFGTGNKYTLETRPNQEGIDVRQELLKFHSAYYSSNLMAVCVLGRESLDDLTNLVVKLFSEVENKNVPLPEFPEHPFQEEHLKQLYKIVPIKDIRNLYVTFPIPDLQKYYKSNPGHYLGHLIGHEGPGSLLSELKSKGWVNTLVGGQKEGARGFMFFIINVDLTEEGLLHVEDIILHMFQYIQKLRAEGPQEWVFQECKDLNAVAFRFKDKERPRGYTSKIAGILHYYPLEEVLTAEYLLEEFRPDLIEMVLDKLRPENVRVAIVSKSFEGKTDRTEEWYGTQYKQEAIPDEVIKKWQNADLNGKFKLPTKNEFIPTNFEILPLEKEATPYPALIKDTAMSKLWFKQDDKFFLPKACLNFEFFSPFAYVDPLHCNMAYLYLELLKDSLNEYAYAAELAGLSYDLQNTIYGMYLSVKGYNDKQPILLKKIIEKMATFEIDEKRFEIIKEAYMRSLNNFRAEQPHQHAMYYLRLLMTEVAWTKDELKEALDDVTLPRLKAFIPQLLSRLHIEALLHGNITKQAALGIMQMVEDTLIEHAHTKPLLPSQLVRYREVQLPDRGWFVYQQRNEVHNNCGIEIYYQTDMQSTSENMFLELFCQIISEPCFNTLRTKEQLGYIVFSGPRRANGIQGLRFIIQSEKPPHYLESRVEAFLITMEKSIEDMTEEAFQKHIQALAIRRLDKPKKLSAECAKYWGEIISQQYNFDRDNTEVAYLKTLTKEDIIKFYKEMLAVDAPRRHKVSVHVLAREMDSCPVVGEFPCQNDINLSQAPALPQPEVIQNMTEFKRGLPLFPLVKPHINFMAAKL

[2] = microbe, parasite or virus in culture; type: functional; details: Mycobacterium tuberculosis
[3] = HepG2 cell cytotoxicity, dose response, cytotoxicity control for Shn3 inhibitor project, CellTiter-Glo, cherry-picked (AID 624134); type: functional, cell-based
HEK293 [4] = assay: HEK cell cytotoxicity by LDH release, dose response, cytotoxicity control for IDE activator project, fluorescence, HEK cells (AID 588440); type: functional, cell-based; details: Homo sapiens;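 further: cytotoxicity by LDH release measuring loss of membrane integrity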
[5] = HepG2 cell cytotoxicity, dose response, cytotoxicity control for non-replicating M. tuberculosis project (AID 489018); type: functional; details: Mycobacterium tuberculosis
[6] = Vero E6 cell cytotoxicity, dose response, cytotoxicity control for non-replicating M. tuberculosis project, secondary assay (AID 492998); type: functional, VeroE6; details: Vero C1008
Insulin-degrading enzyme [7] = target: T1, Insulin-degrading enzyme; assay: activators of recombinant IDE enzyme, dose response, counter-screen for IDE activator project, biochemical, fluorescence polarization (AID 588681)
cells = type: functional
HEK293 [8] = assay: optical interference in Abeta FP readout, dose response, artefact control for IDE activator project, biochemical, fluorescence polarization (AID 588442); type: functional, cell-based; details: Homo sapiens
[9] = target: T2, Ubiquitin-conjugating enzyme E2 N (Homo sapiens, UniProt P61088); type: functional;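 further: Dose-response confirmation in a TR-FRET assay detecting UBC13-driven polyubiquitin chain formation, inhibition measured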
T2 sequence (P61088 whole entry): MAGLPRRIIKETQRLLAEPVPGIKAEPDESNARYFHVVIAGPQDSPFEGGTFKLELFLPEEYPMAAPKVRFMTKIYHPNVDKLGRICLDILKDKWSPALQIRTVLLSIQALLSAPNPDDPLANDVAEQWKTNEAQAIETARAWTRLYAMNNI

[10] = control 3'UTR Renilla luciferase suppression, dose response, counter-screen for Shn3 inhibitor project, cell-based, Clone20-Shn3RL, cherry-picked (AID 624133); type: functional
[11] = Shn3 3'UTR reporter inhibitors, dose response, cell-based, Clone20 osteoblasts, firefly luciferase, cherry-picked (AID 624132); type: functional;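 further: firefly luciferase luminescence from reporter carrying the Shn3 3'UTR in osteoblasts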
[12] = THP-1 cell cytotoxicity, dose response, cytotoxicity control for non-replicating M. tuberculosis project (AID 489025); type: functional
[13] = target: Runt-related transcription factor 1/Core-binding factor subunit beta (Homo sapiens, UniProt Q01196+Q13951); assay: Confirmation of compounds inhibiting the binding between the RUNX1 Runt domain and CBFb-SMMHC via a fluorescence resonance energy transfer (FRET) assay. [Related pubchem assays (depositor defined):AID1434, AID1438, AID1496, AID1550, AID1645]; type: protein assay
Chain of Runt-related transcription factor 1/Core-binding factor subunit beta (Q01196 whole entry, the tested form may be a part): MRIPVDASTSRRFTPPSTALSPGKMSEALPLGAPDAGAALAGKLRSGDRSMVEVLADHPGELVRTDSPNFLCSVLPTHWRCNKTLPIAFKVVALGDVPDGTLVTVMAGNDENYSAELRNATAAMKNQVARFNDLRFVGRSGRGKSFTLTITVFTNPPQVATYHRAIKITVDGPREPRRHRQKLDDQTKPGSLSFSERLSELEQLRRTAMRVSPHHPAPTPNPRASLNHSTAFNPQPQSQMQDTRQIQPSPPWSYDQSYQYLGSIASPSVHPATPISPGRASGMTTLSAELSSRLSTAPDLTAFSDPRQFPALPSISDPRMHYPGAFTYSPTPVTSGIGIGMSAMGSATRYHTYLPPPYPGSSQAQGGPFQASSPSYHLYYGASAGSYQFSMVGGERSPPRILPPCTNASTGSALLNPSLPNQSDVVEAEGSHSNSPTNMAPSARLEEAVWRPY
Chain of Runt-related transcription factor 1/Core-binding factor subunit beta (Q13951 whole entry, the tested form may be a part): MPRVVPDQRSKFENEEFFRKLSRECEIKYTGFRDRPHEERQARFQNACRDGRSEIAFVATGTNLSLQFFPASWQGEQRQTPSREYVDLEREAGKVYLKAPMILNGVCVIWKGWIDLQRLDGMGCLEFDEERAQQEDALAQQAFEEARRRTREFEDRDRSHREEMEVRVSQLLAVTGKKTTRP

[14] = target: T3, Corticotropin-releasing factor receptor 2/Corticotropin-releasing factor-binding protein (Homo sapiens, UniProt P24387+Q13324); assay: activators of CRF receptor 2 with binding protein – uHTS hits, confirmation (AID 602473); type: functional; details: read-out: EC50_Mean
T3 sequence (Q13324 whole entry): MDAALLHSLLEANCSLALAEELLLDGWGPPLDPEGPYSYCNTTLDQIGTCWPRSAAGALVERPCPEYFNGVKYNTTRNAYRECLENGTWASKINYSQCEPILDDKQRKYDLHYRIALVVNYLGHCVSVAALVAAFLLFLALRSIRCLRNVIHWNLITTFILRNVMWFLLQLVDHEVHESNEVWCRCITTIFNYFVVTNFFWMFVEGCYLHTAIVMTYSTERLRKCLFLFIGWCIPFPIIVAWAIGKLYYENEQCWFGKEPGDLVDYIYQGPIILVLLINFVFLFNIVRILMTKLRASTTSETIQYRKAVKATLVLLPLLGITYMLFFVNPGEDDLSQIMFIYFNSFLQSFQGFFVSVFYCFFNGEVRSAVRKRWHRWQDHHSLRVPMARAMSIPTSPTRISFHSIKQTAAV
T3 sequence (P24387 whole entry): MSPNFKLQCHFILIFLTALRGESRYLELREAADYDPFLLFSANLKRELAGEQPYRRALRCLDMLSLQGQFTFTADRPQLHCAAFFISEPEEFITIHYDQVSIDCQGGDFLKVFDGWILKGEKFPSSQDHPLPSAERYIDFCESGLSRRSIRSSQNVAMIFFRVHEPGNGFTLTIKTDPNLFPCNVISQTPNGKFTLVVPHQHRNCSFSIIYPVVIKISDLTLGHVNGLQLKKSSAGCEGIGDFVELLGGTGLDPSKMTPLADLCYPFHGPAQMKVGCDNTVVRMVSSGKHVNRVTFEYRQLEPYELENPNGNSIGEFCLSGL

[15] = target: T4, Heat shock factor protein 1 (Mus musculus, UniProt P38532); assay: inhibition of MG132-induced HSE-luciferase signal, confirmation, cell-based, NIH3T3, luminescence, dose retest (AID 2382); type: functional;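 further: NIH3T3 fibroblasts with HSF1-driven luciferase reporter stressed by proteasome inhibitor MG132; luminescence from HSF1-driven luciferase expression after 8 hours of MG132 stress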
T4 sequence (P38532 whole entry): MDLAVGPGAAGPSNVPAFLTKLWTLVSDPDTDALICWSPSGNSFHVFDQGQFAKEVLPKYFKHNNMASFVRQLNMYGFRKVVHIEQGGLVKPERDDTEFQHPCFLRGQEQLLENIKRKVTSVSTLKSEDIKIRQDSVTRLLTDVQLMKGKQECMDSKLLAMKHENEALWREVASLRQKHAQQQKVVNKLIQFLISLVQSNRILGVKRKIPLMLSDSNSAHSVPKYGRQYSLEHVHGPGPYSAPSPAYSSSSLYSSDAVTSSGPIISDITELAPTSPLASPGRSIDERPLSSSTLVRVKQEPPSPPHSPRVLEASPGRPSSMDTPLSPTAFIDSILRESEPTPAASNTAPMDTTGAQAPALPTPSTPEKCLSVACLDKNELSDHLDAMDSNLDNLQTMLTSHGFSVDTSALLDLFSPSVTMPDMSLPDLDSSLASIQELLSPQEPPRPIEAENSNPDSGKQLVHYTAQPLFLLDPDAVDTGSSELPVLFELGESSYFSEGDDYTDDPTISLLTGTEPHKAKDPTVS

[16] = target: T5, E3 ubiquitin-protein ligase XIAP (Homo sapiens, UniProt P98170); assay: XIAP antagonists, biochemical, IAP family, fluorescence polarization (AID 1018); type: functional
T5 sequence (P98170 whole entry): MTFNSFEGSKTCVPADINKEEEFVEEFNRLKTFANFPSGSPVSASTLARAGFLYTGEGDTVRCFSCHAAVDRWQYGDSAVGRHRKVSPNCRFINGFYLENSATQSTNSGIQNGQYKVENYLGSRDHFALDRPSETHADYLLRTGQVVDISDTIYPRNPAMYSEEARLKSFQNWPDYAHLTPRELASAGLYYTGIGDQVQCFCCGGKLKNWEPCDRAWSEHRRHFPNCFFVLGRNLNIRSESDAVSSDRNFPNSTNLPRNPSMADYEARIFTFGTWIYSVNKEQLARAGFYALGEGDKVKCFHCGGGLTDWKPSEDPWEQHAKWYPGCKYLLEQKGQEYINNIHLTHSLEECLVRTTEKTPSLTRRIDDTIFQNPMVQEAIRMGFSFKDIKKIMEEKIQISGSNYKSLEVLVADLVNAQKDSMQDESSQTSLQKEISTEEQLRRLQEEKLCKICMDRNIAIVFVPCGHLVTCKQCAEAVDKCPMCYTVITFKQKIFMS

[17] = target: T5, E3 ubiquitin-protein ligase XIAP; assay: Counter Screen using XIAP-Bir3 for Chemical Antagonists of Bir1/2 domains of IAP-family anti-apoptotic proteins. [Related pubchem assays (depositor defined):AID1018, AID1449, AID1514, AID1638, AID1749, AID1750, AID488957, AID488963]
[18] = target: Voltage-dependent T-type calcium channel subunit alpha-1H (Homo sapiens, UniProt O95180); assay: Cav3.2 T-type channel inhibitors, synthesized analogs, SAR follow-up, cell-based, synthetic library set 2, HEK293 HH8, Fluo-4 (AID 493023); type: functional
Chain of Voltage-dependent T-type calcium channel subunit alpha-1H (O95180 whole entry): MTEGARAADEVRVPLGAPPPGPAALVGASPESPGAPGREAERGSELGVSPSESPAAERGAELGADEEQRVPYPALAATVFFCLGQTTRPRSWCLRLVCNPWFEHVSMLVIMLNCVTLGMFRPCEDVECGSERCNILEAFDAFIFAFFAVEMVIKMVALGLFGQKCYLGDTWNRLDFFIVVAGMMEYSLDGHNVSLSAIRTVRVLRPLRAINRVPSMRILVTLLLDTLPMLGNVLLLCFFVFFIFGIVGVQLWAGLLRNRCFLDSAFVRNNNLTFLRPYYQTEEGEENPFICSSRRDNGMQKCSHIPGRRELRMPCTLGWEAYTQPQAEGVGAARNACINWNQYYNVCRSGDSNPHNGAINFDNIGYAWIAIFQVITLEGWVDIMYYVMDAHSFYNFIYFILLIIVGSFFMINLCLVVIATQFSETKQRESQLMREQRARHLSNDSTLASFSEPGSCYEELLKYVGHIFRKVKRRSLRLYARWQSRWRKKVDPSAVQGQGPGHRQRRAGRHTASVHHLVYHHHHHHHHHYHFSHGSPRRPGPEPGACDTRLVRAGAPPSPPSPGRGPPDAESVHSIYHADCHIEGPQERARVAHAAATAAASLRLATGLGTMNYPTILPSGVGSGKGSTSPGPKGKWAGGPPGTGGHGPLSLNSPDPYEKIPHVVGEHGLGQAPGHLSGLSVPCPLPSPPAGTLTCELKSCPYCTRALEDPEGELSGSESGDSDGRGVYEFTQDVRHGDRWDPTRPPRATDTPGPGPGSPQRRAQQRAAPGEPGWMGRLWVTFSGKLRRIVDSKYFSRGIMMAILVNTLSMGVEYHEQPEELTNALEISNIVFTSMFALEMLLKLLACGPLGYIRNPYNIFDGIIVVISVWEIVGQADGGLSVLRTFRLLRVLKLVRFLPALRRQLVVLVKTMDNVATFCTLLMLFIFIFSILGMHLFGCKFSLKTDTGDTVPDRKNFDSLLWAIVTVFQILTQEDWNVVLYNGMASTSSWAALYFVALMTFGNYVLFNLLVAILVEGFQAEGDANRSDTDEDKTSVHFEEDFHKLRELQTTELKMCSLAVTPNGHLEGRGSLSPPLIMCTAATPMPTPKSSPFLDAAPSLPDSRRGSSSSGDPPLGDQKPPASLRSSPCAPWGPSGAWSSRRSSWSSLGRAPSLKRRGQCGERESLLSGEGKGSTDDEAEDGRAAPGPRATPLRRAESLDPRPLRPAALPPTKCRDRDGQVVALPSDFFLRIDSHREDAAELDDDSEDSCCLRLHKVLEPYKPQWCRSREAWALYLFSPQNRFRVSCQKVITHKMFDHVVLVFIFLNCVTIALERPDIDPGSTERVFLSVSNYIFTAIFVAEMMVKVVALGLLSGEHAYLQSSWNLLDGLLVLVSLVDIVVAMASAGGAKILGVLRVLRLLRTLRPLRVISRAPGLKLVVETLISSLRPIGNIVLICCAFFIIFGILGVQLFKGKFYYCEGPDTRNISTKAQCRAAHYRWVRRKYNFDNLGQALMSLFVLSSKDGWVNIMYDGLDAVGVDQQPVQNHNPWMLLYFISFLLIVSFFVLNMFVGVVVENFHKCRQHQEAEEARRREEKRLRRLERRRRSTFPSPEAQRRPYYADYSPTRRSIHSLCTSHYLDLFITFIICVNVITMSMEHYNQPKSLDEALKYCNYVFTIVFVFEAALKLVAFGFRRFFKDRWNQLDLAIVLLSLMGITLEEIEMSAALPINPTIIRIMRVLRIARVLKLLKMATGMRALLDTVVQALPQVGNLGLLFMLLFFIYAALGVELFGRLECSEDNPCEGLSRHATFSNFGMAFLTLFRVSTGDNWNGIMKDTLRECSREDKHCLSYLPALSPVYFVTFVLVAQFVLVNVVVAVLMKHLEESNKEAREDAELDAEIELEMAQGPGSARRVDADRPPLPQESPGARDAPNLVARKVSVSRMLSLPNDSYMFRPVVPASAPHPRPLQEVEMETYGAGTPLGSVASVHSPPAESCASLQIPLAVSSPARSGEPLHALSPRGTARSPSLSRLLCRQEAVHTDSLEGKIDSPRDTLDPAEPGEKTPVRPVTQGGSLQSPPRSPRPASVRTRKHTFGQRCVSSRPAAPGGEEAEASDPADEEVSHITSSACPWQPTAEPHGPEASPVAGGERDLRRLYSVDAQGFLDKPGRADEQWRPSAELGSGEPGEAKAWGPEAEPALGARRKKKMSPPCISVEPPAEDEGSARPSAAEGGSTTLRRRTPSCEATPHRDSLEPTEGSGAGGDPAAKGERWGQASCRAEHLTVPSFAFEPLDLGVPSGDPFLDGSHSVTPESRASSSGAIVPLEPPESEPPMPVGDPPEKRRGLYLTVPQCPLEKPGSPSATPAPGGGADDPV

In the case of CCCCCCCNC(=O)C1(CC2CC(c3cccc(Br)c3)=NO2)CCNCC1 (centres undefined), the EC50 (Insulin-degrading enzyme [1]) was 54.5 µM (inactive), the CC50 [2] was 6.71 µM (active) and the AC50 [3] was 14.1 µM (active). For the same compound, the IC50 (HEK293 [4]) was 7.51 µM (active), the CC50 [5] was 5.99 µM (active) and the CC50 [6] was 15.2 µM (active). For the same compound, the EC50 (Insulin-degrading enzyme [7]) was > 54.7 µM (inactive), the IC50 (cells) was 17.2 µM (active) and the EC50 (HEK293 [8]) was > 55.9 µM (inactive). For the same compound, the IC50 [9] was > 20 µM (inactive), the AC50 [10] was 16.5 µM (active) and the AC50 [11] was 11.7 µM (active). The CC50 [12] was 6.82 µM (active).
In the case of CCS(=O)(=O)Nc1ccc(-c2nc3cccnc3s2)cc1, the IC50 [13] was 12.8 µM (active), the EC50 [14] was > 53 µM (inactive) and the EC50 [15] was 92.9 µM (active).
In the case of O=C1C2C3c4ccccc4C(c4ccccc43)C2C(=O)N1c1ccncc1 (centres undefined), the IC50 [16] was > 100 µM (not active) and the IC50 [17] was > 100 µM (inactive).
With O=C(COc1ccc(F)c(Cl)c1)N[C@H]1CCCN(Cc2ccccc2)C1 the EC50 [18] was 10 µM (active).
